Experiment [1] deals with T1, Ba/F3 SLC34A2-ROS1-G2032R stably transfected cell line (Homo sapiens, UniProt P08922, G2032R, cells depend on it).
T1 construct: fused on or other part: O95436 (Sodium-dependent phosphate transport protein 2B)
Kind of experiment: Cell proliferation inhibition (CellTiter-Glo). In kind it is cell-based. The conditions noted are these: 72 hours, read-out: The half maximal inhibitory concentration IC50 against cells, Ba/F3 SLC34A2-ROS1-G2032R.

The target in a further experiment is T2, Ros-G2032R (Homo sapiens, UniProt P08922, G2032R).
T2 construct: purchased Reaction Biology Corp. (contract assay)
Kind of experiment: Kinase inhibitory activity (33P-ATP filter binding, Reaction Biology Corp.). In kind it is biochemical. Conditions: read-out: The half maximal inhibitory concentration IC50 on the kinases, Ros-G2032R. An outline of the steps:
(§1)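 Radioactivity was read by filter binding. Activity was expressed as remaining activity relative to DMSO control, and IC50 came from dose-effect curve fitting.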

The target in a further experiment is T3, TrkA-G667C (Homo sapiens, UniProt P04629, G667C).
T3 construct: purchased Reaction Biology Corp. (contract assay)
The description is as above. It counts as biochemical. Conditions: read-out: The half maximal inhibitory concentration IC50 on the kinases, TrkA-G667C. In outline: as §1

Another experiment concerns the target T4, TrkA (Homo sapiens, UniProt P04629).
T4 construct: purchased Reaction Biology Corp. (contract assay)
Described as above. It counts as biochemical. Conditions: read-out: The half maximal inhibitory concentration IC50 on the kinases, TrkA. An outline of the steps:
as §1

The next experiment addresses T5, TrkC (Homo sapiens, UniProt Q16288).
T5 construct: purchased Reaction Biology Corp. (contract assay)
The description is as above. It counts as biochemical. The conditions noted are these: read-out: The half maximal inhibitory concentration IC50 on the kinases, TrkC. In outline:
as §1

The next experiment deals with T6, Ros1 (Homo sapiens, UniProt P08922).
T6 construct: purchased Reaction Biology Corp. (contract assay)
The experiment is described as above. In kind it is biochemical. Conditions: read-out: The half maximal inhibitory concentration IC50 on the kinases, Ros1. An outline of the steps:
as §1

A further experiment addresses T7, TrkA-G595R (Homo sapiens, UniProt P04629, G595R).
T7 construct: purchased Reaction Biology Corp. (contract assay)
Described as above. It counts as biochemical. The conditions noted are these: read-out: The half maximal inhibitory concentration IC50 on the kinases, TrkA-G595R. An outline of the steps:
as §1

The target of experiment [2] is T8, Ba/F3 LMNA-NTRK1-WT stably transfected cell line (Homo sapiens, UniProt P04629).
T8 construct: fused on or other part: P02545 (Prelamin-A/C)
Kind of experiment: Cell proliferation inhibition (CellTiter-Glo). In kind it is cell-based. Conditions: 72 hours, read-out: The half maximal inhibitory concentration IC50 against cells, Ba/F3 LMNA-NTRK1-WT. An outline of the steps: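 Stably transfected Ba/F3 cells (≥90% viable) were seeded overnight, then exposed in triplicate to a 9-point, 3-fold series (highest 10 μM, prepared as 10× solutions) for 72 h at 37 °C, 5% CO2. Viability was read by ATP luminescence, and IC50 came from a nonlinear sigmoidal fit.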
In general terms: In ATP-based viability assays light output follows the ATP content of the culture.

The target of experiment [3] is T9, BaF3 ETV6-NTRK3-G623R stably transfected cell line (Homo sapiens, UniProt Q16288, G623R, cells depend on it).
T9 construct: fused on or other part: P41212 (Transcription factor ETV6)
Kind of experiment: Cell proliferation inhibition (CellTiter-Glo). The conditions noted are these: 72 hours, read-out: The half maximal inhibitory concentration IC50 against cells, BaF3 ETV6-NTRK3-G623R. In kind it is cell-based.

The target of experiment [4] is T10, Ba/F3 LMNA-NTRK1-G595R stably transfected cell line (Homo sapiens, UniProt P04629, G595R, cells depend on it).
T10 construct: fused on or other part: P02545 (Prelamin-A/C)
Kind of experiment: Cell proliferation inhibition (CellTiter-Glo). It counts as cell-based. The conditions noted are these: 72 hours, read-out: The half maximal inhibitory concentration IC50 against cells, Ba/F3 LMNA-NTRK1-G595R.

Experiment [5] deals with T11, Ba/F3 SLC34A2-ROS1-WT stably transfected cell line (Homo sapiens, UniProt P08922).
T11 construct: fused on or other part: O95436 (Sodium-dependent phosphate transport protein 2B)
Kind of experiment: Cell proliferation inhibition (CellTiter-Glo). In kind it is cell-based. Conditions: 72 hours, read-out: The half maximal inhibitory concentration IC50 against cells, Ba/F3 SLC34A2-ROS1-WT.

The target of experiment [6] is T12, Ba/F3 LMNA-NTRK1-F589L stably transfected cell line (Homo sapiens, UniProt P04629, F589L, cells depend on it).
T12 construct: fused on or other part: P02545 (Prelamin-A/C)
Kind of experiment: Cell proliferation inhibition (CellTiter-Glo). The conditions noted are these: 72 hours, read-out: The half maximal inhibitory concentration IC50 against cells, Ba/F3 LMNA-NTRK1-F589L. In kind it is cell-based.

T7 sequence (P04629 33-796 G595R): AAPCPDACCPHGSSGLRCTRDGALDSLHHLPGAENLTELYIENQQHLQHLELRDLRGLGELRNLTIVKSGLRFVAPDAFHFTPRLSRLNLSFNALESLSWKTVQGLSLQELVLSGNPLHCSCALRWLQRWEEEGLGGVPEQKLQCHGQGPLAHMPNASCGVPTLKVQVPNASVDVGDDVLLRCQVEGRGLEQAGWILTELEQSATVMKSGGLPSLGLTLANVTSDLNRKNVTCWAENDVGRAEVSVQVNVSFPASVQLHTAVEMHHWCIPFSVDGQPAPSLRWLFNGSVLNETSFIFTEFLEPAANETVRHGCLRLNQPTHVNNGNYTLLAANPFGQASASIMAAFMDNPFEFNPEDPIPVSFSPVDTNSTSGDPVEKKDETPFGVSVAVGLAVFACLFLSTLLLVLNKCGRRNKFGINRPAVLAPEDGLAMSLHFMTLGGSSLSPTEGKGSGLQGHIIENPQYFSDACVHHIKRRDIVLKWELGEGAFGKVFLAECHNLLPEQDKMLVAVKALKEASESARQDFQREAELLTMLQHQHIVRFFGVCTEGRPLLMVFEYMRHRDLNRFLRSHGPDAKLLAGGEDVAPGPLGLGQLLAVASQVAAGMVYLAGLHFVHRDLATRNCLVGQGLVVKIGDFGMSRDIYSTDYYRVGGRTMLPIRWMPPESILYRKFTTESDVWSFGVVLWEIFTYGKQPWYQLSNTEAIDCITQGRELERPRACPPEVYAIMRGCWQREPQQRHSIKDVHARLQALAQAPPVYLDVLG
T9 sequence (Q16288 whole entry G623R, the tested form may be a part): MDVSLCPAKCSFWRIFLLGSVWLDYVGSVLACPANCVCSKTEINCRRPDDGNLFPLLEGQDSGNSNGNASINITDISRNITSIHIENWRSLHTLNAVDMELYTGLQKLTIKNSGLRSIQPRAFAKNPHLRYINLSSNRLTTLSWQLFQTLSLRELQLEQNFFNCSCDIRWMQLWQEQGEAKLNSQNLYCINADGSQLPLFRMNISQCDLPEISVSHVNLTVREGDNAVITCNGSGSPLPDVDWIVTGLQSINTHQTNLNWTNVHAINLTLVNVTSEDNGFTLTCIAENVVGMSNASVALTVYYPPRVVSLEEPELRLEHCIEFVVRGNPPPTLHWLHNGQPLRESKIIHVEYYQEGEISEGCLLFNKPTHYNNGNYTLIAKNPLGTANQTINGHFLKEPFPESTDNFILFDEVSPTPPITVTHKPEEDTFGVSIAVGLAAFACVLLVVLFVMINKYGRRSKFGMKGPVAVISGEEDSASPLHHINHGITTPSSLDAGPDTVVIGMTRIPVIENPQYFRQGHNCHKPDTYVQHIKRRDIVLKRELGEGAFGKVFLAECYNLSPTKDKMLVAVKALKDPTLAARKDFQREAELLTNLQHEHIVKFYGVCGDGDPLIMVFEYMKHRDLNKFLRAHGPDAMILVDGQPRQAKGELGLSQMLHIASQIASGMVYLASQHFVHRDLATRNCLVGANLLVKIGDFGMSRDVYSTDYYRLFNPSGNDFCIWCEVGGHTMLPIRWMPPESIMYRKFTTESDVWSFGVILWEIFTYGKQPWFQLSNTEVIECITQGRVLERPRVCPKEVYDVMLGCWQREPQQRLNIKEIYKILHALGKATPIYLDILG
T2 sequence (P08922 28-2347 G2032R): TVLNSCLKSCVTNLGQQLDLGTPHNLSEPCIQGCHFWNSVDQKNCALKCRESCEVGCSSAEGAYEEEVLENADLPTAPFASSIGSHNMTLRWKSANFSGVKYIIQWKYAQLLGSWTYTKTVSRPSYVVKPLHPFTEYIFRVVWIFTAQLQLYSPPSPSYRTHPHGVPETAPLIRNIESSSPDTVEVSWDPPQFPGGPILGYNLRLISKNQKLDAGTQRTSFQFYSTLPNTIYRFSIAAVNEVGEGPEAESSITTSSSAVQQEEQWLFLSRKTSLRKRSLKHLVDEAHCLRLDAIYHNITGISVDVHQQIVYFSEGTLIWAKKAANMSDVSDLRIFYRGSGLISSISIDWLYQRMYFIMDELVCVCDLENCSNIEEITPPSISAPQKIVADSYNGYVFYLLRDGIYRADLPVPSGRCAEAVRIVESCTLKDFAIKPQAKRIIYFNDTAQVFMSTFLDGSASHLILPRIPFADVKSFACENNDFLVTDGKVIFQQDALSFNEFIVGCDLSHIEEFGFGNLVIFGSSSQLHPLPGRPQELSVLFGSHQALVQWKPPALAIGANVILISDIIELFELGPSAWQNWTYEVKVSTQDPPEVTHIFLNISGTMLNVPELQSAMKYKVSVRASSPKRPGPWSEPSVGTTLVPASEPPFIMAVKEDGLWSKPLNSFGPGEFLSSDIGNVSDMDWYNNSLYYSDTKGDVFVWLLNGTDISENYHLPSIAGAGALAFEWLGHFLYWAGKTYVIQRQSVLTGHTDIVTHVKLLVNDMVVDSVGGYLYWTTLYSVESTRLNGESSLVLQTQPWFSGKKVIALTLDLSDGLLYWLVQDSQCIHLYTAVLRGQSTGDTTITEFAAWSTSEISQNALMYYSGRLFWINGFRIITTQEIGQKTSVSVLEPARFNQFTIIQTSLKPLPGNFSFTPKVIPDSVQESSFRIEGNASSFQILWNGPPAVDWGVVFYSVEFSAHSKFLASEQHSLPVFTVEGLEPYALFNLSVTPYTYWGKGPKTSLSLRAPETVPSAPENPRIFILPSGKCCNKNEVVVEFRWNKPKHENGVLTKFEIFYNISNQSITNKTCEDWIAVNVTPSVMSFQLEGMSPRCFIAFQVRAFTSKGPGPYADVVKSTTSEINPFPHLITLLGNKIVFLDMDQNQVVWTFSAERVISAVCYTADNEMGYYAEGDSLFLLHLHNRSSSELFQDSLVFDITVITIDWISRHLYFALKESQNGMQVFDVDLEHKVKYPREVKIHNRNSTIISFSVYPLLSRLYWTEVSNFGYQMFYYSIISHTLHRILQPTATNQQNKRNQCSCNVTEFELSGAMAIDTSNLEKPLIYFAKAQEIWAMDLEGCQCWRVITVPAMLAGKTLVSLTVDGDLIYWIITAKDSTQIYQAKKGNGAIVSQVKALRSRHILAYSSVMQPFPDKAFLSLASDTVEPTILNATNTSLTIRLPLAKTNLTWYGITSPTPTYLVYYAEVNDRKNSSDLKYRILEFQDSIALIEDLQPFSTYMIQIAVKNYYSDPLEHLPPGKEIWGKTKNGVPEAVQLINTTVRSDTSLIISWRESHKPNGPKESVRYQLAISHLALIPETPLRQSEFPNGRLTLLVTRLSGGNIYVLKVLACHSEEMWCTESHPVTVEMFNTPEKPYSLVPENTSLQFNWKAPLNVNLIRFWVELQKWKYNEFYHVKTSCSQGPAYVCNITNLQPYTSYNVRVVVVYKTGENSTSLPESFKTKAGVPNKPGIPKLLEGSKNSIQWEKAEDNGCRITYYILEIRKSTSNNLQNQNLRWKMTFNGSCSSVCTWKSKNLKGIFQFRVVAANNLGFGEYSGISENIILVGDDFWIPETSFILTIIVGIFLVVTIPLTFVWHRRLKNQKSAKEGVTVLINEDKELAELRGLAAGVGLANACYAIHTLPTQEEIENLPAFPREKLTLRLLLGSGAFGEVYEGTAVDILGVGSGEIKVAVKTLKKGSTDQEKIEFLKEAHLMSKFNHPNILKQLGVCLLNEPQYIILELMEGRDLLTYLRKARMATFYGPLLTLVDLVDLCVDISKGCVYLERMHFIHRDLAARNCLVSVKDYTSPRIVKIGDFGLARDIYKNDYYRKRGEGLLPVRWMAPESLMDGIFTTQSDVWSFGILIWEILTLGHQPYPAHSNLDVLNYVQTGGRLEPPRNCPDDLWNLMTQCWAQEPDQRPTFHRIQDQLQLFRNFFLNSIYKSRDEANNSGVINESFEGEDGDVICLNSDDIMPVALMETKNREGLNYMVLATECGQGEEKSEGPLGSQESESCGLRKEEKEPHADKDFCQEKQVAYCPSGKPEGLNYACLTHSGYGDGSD
T5 sequence (Q16288 32-839): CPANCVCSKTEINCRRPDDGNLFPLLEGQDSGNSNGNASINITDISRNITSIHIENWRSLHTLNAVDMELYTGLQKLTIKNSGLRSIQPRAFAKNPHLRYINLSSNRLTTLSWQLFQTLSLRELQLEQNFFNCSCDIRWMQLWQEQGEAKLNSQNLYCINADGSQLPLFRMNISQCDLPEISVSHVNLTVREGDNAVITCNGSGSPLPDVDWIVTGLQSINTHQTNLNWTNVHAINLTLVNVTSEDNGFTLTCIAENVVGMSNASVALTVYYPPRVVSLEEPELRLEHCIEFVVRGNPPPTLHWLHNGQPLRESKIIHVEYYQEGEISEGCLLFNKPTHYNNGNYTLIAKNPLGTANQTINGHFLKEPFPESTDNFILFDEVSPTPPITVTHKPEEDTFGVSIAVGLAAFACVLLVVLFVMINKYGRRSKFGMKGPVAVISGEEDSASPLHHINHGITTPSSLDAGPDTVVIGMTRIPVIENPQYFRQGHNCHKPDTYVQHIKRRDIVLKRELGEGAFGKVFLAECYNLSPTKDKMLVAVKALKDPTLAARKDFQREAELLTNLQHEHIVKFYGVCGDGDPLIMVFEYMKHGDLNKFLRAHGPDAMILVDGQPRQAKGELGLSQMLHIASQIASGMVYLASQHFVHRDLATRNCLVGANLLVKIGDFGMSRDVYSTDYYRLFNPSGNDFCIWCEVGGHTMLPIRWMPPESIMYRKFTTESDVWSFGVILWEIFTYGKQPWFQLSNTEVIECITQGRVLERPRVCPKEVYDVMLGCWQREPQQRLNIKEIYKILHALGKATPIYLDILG
T3 sequence (P04629 33-796 G667C): as the sequence (P04629 33-796 G595R) above, with R563G, G635C counted along it
T4 sequence (P04629 33-796): as the sequence (P04629 33-796 G595R) above, with R563G counted along it
T6 sequence (P08922 28-2347): as the sequence (P08922 28-2347 G2032R) above, with R2005G counted along it

As to `O=C1N[C@@H]2COC[C@@H]2Oc2ncc(F)cc2[C@H]2CCON2c2ccn3ncc1c3n2` [WX008A], the GI50 in [1] was 38.5 nM; in experiment [2], 1.6 nM; in experiment [3], 3.49 nM; in experiment [4], 3.92 nM; in [5] it was 5.45 nM; in experiment [6], 1.59 nM. Also, the IC50 is 0.52 nM at Ros-G2032R; 6.49 nM on TrkA-G667C; 1.61 nM on TrkA; 0.05 nM at TrkC; 0.16 nM on Ros1; 2.31 nM at TrkA-G595R.
For `O=C1NC2(CC2)COc2ncc(F)cc2[C@H]2CCON2c2ccn3ncc1c3n2` [WX002A], the GI50 in experiment [1] turned out to be 16.1 nM; in experiment [2], 1.26 nM; in [3], 3.4 nM; in experiment [4] it was 6.2 nM; in [5], 2.53 nM; in experiment [6], 0.78 nM. Also, the IC50 on Ros-G2032R stood at 0.4 nM; at TrkA-G667C, 7 nM; on TrkA it was 2.07 nM; on TrkC it was 0.14 nM; on Ros1, 0.14 nM; at TrkA-G595R, 3.6 nM.

Source of the values: US11464780B2, “Pyrazolopyrimidine derivative and use thereof” (Simcere Pharmaceutical Co. Ltd., priority 2018, dated 2022).
